Where “and” joins values, the source holds several entries; their conditions need not be identical. Identical values can stand only once.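 Dose response: 5 concentrations. Exposure: 48 h. Format: 96-well plates. Endpoint: linear interpolation; highest concentration if not reached. At the GI50, growth is halved. TGI is the concentration that stops growth completely.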
Tests used:
Experiment in all cases: NCI tumour cell line growth inhibition, 48 h
[1] = system: CAKI-1 renal
[2] = system: IGROV1 ovarian
[3] = system: NCI-H460 lung
[4] = system: PC-3 prostate
[5] = system: RPMI-8226 leukemia
[6] = system: SF-268 CNS
[7] = system: SK-MEL-2 melanoma
[8] = system: SK-MEL-28 melanoma
[9] = system: SNB-19 CNS
[10] = system: TK-10 renal

Structure (SMILES) | GI50 [1] | TGI [1] | GI50 [2] | TGI [2] | GI50 [3] | TGI [3] | GI50 [4] | TGI [4] | GI50 [5] | TGI [5] | GI50 [6] | TGI [6] | GI50 [7] | TGI [7] | GI50 [8] | TGI [8] | GI50 [9] | TGI [9] | GI50 [10] | TGI [10]
NC(N)=N/N=C/c1ccc(Br)cc1 | 3.02 µM | 15.2 µM | 4.91 µM | 24.2 µM | 3.29 µM | 11.7 µM | 4.57 µM | 24 µM | 11.6 µM | > 100 µM | 12.4 µM | 38.2 µM | 12 µM | 26.4 µM | 5.61 µM | 18.8 µM | 5.74 µM | 24.2 µM | 7.44 µM | 21.3 µM
N#CC(CC(=O)O)=C(c1ccccc1)c1ccccc1 |  | > 100 µM |  | > 100 µM |  | > 100 µM |  | > 100 µM |  | > 100 µM |  | > 100 µM |  | > 100 µM |  | > 100 µM |  | > 100 µM |  | > 100 µM
CCCCCCCCCCCCCCCC(N)c1ccccc1 (centres undefined) | 1.53 µM | 2.96 µM | 1.78 µM | 3.44 µM | 1.91 µM | 3.55 µM | 1.67 µM | 3.26 µM | 2.09 µM | 4.66 µM | 1.63 µM | 3.26 µM | 1.68 µM | 3.35 µM | 1.8 µM | 3.48 µM |  |  | 1.61 µM | 3.1 µM
Nc1cc(N)c2nc(-c3ccccc3)c(Oc3ccc(Cl)c(Cl)c3)nc2c1 | 14.5 µM | 35.9 µM | 11.4 µM | 32.2 µM | 18.4 µM | 71.4 µM | 15.5 µM | > 100 µM | 3.51 µM | > 100 µM | 17.1 µM | 52.5 µM | 5.63 µM | 23.3 µM | 21.5 µM | 64.2 µM | 20.9 µM | 52.5 µM | 17.6 µM | 38 µM
NS(=O)(=O)c1ccc(N=Nc2c(=O)[nH]c3ccc4[nH]cccc4c23)cc1 | 4.28 µM | > 25 µM | 0.789 µM | > 25 µM | 0.792 µM | > 25 µM | 0.583 µM | > 25 µM | 1.97 µM | 14.2 µM | 0.33 µM | > 5.99 µM | 0.182 µM | 0.696 µM | 0.518 µM | 1.64 µM | 0.428 µM | > 25 µM | 0.699 µM | 2.24 µM
CCCC(CCC)C(=O)O | > 100 µM | > 20000 µM | > 100 µM | > 20000 µM | > 100 µM | > 20000 µM | > 100 µM | > 20000 µM | > 100 µM | > 20000 µM | > 100 µM | > 100 µM and 12000 µM | > 100 µM | > 20000 µM |  | > 100 µM | > 20000 µM | > 20000 µM | > 100 µM | > 20000 µM
CC(=O)N1c2ccc(-c3ccc(C(=O)O)cc3)cc2[C@H](Nc2ccc(Cl)cc2)C[C@@H]1C | 0.0457 µM | > 100 µM | 0.531 µM | 64.9 µM | 1.61 µM | > 55.6 µM | 1.24 µM | 28.7 µM | 0.0615 µM | 18.6 µM | 5.76 µM | > 90.9 µM | 0.581 µM | 14.3 µM | 0.494 µM | 34.8 µM | 1.06 µM | > 100 µM | 0.0569 µM | 17.9 µM
CCC(=O)OCN1C(=O)C=CC1=O | 10.5 µM | 25.3 µM and 9.35 µM | 21.4 µM | 40.5 µM and 34.2 µM | 21.3 µM | 44.2 µM and 33.7 µM |  | 33.1 µM and 30.9 µM | 19.3 µM and 4.42 µM | 56.2 µM and 13.5 µM | 19.1 µM | 36.9 µM and 41.3 µM |  | 29.3 µM |  | 33.3 µM and 33.4 µM | > 100 µM | > 100 µM and 32.5 µM | 15.6 µM | 29.3 µM and 18.4 µM
NC(=S)N=Nc1c(O)[nH]c2ccccc12 | 32 µM and 73.4 µM | 251 µM | 66.7 µM and 162 µM | 477 µM | 185 µM | > 1000 µM | 172 µM | 392 µM | 194 µM | 708 µM | 189 µM | 989 µM | 296 µM | > 1000 µM | 713 µM | > 1000 µM | 262 µM | 722 µM | 165 µM | 326 µM
COc1ccc2c(c1)C(=O)c1c-2n(CCCNCCO)c(=O)c2cc([N+](=O)[O-])ccc12 | < 0.01 µM | 0.0602 µM | 0.0283 µM | 1.81 µM | < 0.01 µM | 0.0148 µM | < 0.0137 µM | 1.33 µM | < 0.01 µM | 0.0469 µM | < 0.01 µM | 0.378 µM | 0.427 µM | 2.3 µM | 0.0124 µM | 1.5 µM | < 0.01 µM | 19.9 µM | 0.28 µM | 11.8 µM
O=C(N/N=C/c1cccc(O)c1)c1ccc(C(F)(F)F)nc1Nc1cccc(C(F)(F)F)c1 | 1.17 µM | 3 µM | 2.65 µM | 11.6 µM | 1.74 µM | 4.52 µM | 1.66 µM | 7.67 µM | 1.32 µM | 3.99 µM | 1.04 µM | 6.13 µM | 1.76 µM | 6.07 µM | 1.89 µM | 10.1 µM | 2.51 µM | 12 µM | 1.44 µM | 4.64 µM
O=C(CN1CCN(c2ccccn2)CC1)Nc1ccc(Cl)cc1C(=O)c1ccccc1Cl | > 100 µM | > 100 µM | 89.2 µM | > 100 µM | 93.6 µM | > 100 µM | 6 µM | > 100 µM | 4.64 µM | > 100 µM | > 100 µM | > 100 µM | > 100 µM | > 100 µM | > 100 µM | > 100 µM | 79.6 µM | > 100 µM | > 100 µM | > 100 µM
COC(=O)CCc1c(/C=C2\N=C(c3ccc[nH]3)C=C2OC)[nH]c(C)c1C(=O)OCc1ccccc1 | 0.272 µM | 1.59 µM | 0.355 µM | 2.41 µM | 0.958 µM | > 61.9 µM | 0.228 µM | > 37.6 µM | 0.343 µM | 2.27 µM | 0.514 µM | 8.23 µM | 0.304 µM | 1.24 µM | 0.503 µM | 2.3 µM | 1.17 µM | > 100 µM | 0.873 µM | 7.05 µM

Reference: PubChem BioAssay (NCI)
